Reference: patent US10100077B2, “6-aryl-9-glycosylpurines and use thereof” (UNIVERZITA PALACKEHO V OLOMOUCI, priority 2014, dated 2018)

Columns and labels:
[1] = tested on: Normal human dermal fibroblasts (NHDF); test: In vitro phototoxicity test (UVA, neutral red); type: cell-based; conditions: UVA 5.0 J/cm^2, 0.9-125 μmol/l or 3.9-500 μmol/l, neutral red after 24 hours
Experimental: Phototoxic potential of test compound was determined by modified in vitro test validated phototoxicity evaluation (Spielmann H, Balls M, Dupuis J, Pape W J, Pechovitch G, de Silva O, Holzhater H G, Clothier R, Desolle P, Gerberick F, Liebsch M, Lovell W W, Maurer T, Pfannenbecker U, Potthast J M, Csato M, Sladowski D, Steiling W, Brantom P., Toxicol In Vitro. 1998 Jun. 1; 12(3):305-27). Normal human dermal fibroblasts (NHDF) were used as an in vitro model. Cells were isolated from tissue specimens obtained from healthy patients undergoing plastic surgery at the Department of Plastic and Aesthetic Surgery (University Hospital Olomouc). The use of skin tissue was in accordance with the Ethics Committee of the University Hospital and Faculty of Medicine and Dentistry, Palacký University, Olomouc and all patients signed written informed consent. Fibroblasts were used between the 2nd and 4th passage. […]
Test compound was 6-(3-methoxybenzylamino)-9-β-D-arabinofuranosylpurine. […] Intensity of UVA radiation was evaluated before each irradiation by UVA-meter. […] After 24 hours (37° C., 5% CO2) cell damage was evaluated by neutral red (NR) incorporation into viable cells. […] After 5 minutes of intensive shaking absorbance was measured at 540 nm. […] Phototoxic effect was evaluated as % of viability of control cells that was calculated from experimental data (absorbance) according to the following equation: […]

[2] = tested on: Normal human dermal fibroblasts (NHDF); test: In vitro UVA photoprotection test (neutral red); type: cell-based; conditions: UVA 7.5 J/cm^2, 0.9; 1.8; 3.9 a 7.8 μmol/l, 60 minutes pre-incubation
Description: Normal human dermal fibroblasts (NHDF) were used as an in vitro model. Cells were isolated from tissue specimens obtained from healthy patients undergoing plastic surgery at the Department of Plastic and Aesthetic Surgery (University Hospital Olomouc). The use of skin tissue was in accordance with the Ethics Committee of the University Hospital and Faculty of Medicine and Dentistry, Palacký University, Olomouc and all patients signed written informed consent. Fibroblasts were used between the 2nd and 4th passage. For all experiments the fibroblasts were seeded onto 96-well plates at a density of 0.8×10^5 cells/ml (0.2 ml per well) of cultivation medium (DMEM supplemented with foetal calf serum (10%, v/v), penicillin […] and streptomycin (100 U/ml)).
Test compounds included 6-(3-methoxybenzylamino)-9-β-D-arabinofuranosylpurine. […] Intensity of UVA or UVB radiation was evaluated before each irradiation by UVA- or UVB-meter. […] After 24 hours (37° C., 5% CO2) cell damage was evaluated by neutral red (NR) incorporation into viable cells. […] After 5 minutes of intensive shaking absorbance was measured at 540 nm. […] Photoprotective effect was evaluated by comparison of experimental data (absorbance) of test compounds with a positive control and a negative control (according to the following equation: […]

## COc1cccc(CNc2ncnc3c2ncn3[C@@H]2O[C@H](CO)[C@@H](O)[C@@H]2O)c1 [6-(3-methoxybenzylamino)-9-β-D-arabinofuranosylpurine]
[1]
  phototoxic effect (viability after UVA): non-phototoxic
[2]
  viability after UVA vs DMSO control (photoprotection): higher viability
